In PubChem BioAssay (NCI):
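Results reflect a 48-hour exposure of cells in 96-well plates to compound at five concentrations. The concentration for full growth arrest is given as TGI.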

What was measured:
Test in all cases: NCI-60 cell line screen, 48 h
[1] = tested on: CAKI-1 renal
[2] = tested on: EKVX NSCLC
[3] = tested on: HCC-2998 colon
[4] = tested on: HCT-116 colon
[5] = tested on: HOP-62 NSCLC
[6] = tested on: HT29 colon
[7] = tested on: KM12 colon
[8] = tested on: M14 melanoma
[9] = tested on: MOLT-4 leukemia
[10] = tested on: NCI-H23 lung
[11] = tested on: OVCAR-5 ovarian
[12] = tested on: SF-295 CNS
[13] = tested on: SK-OV-3 ovarian
[14] = tested on: SN12C renal
[15] = tested on: UACC-257 melanoma
[16] = tested on: UO-31 renal
[17] = tested on: DU-145 prostate
[18] = tested on: HS 578T breast
[19] = tested on: MCF7 breast
[20] = tested on: NCI/ADR-RES ovarian

Row | Structure (SMILES) | TGI [1] [µM] | TGI [2] [µM] | TGI [3] [µM] | TGI [4] [µM] | TGI [5] [µM] | TGI [6] [µM] | TGI [7] [µM] | TGI [8] [µM] | TGI [9] [µM] | TGI [10] [µM] | TGI [11] [µM] | TGI [12] [µM] | TGI [13] [µM] | TGI [14] [µM] | TGI [15] [µM] | TGI [16] [µM] | TGI [17] [µM] | TGI [18] [µM] | TGI [19] [µM] | TGI [20] [µM]
1 | CCCCCCn1c(SCC)c2ccccc2c1-c1nc(F)nc(F)n1 | > 100 | > 100 | > 100 | > 100 | > 100 | > 100 | > 100 | > 100 | > 100 | > 100 | > 100 | > 100 | > 100 | > 100 | > 100 | > 100 | – | – | – | –
2 | CN(C(=O)C12C3C4C1C1C2C3C41I)C(C)(C)C (stereo unspecified) | > 100 | > 100 | > 100 | > 100 | > 100 | > 100 | > 100 | > 100 | > 47.3 | > 100 | > 100 | > 100 | > 100 | > 100 | > 100 | > 100 | – | – | – | –
3 | CC1=C(C(=O)Nc2cccc3c2C(=O)NC3=O)CC(C(=O)Nc2cccc3c2C(=O)NC3=O)=C(C)N1 | > 100 | > 100 | > 100 | > 100 | > 100 | – | > 100 | > 100 | > 100 | > 100 | > 100 | > 100 | > 100 | > 100 | > 100 | > 100 | > 100 | > 100 | > 100 | –
4 | Cc1c2ccncc2cc2c1sc1ccncc12 | 12.5 | 15.5 | 15.4 | 13.1 | 8.37 | 14.5 | 17.1 | 13.5 | 2.45 | 10.7 | 19.7 | 9.59 | 29 | 16.5 | 11 | 8.04 | 6.9 | 20.4 | 3.56 | –
5 | NC(=O)OCC(COc1ccc(Cl)cc1)OC(=O)c1ccccc1Cl (stereo unspecified) | 74.8 | 70 | 43.5 | 30.7 | 49.2 | 33.2 | 45.5 | 32.8 | 56.6 | 44.8 | 62.8 | 62.2 | > 100 | 34 | 37.8 | 51.5 | – | – | – | –
6 | O=C(c1ccc(Cl)cc1Cl)N(C(=O)N1CCC(c2ccccc2)CC1)c1ccccc1 | > 100 | > 100 | > 100 | > 100 | > 100 | > 100 | > 100 | > 100 | 75 | > 100 | > 100 | > 100 | > 100 | > 100 | > 100 | > 100 | > 100 | – | > 100 | > 100
7 | CC1C2CC(CC(=O)N2)C1(C)C (stereo unspecified) | > 100 | > 100 | > 100 | > 100 | > 100 | > 100 | > 100 | > 100 | – | > 100 | > 100 | > 100 | > 100 | > 100 | > 100 | > 100 | > 100 | > 100 | > 100 | –
8 | CC#COP(=O)(OCC)OCC | > 100 | > 100 | > 100 | > 100 | > 100 | > 100 | > 100 | > 100 | > 100 | > 100 | > 100 | > 100 | > 100 | > 100 | > 100 | > 100 | – | – | – | –
9 | COc1cc(NC(C)=O)c2[nH]c3c(C)cc(NC(C)=O)c(C)c3c2c1 | > 100 | > 100 | > 100 | > 100 | – | > 100 | > 100 | > 100 | > 100 | > 100 | – | > 100 | > 100 | > 100 | – | > 100 | – | – | – | –
10 | CCc1nnc(CC)n1NCCCC(=O)O | – | > 100 | > 100 | > 100 | > 100 | > 100 | > 100 | > 100 | > 100 | > 100 | > 100 | > 100 | > 100 | > 100 | > 100 | > 100 | > 100 | – | > 100 | > 100
11 | Cn1nc(Cc2ccc(Cl)cc2)n(N)c1=O | > 100 | – | > 100 | > 100 | – | > 100 | > 100 | – | > 100 | > 100 | > 100 | > 100 | – | > 100 | > 100 | > 100 | > 100 | – | > 100 | > 100
12 | COC(=O)c1[nH]c(=S)[nH]c(=O)c1-c1ccc(Cl)cc1 | > 50 | > 50 | > 50 | > 50 | > 50 | > 50 | > 50 | > 50 | > 50 | > 50 | > 50 | > 50 | > 50 | > 50 | > 50 | > 50 | – | – | – | –
13 | C/C(CN1C(=O)c2ccccc2C1=O)=N\NS(=O)(=O)c1ccc(Br)cc1 | > 100 | > 100 | > 100 | > 100 | > 100 | > 100 | > 100 | > 100 | > 100 | > 100 | > 100 | > 100 | > 100 | > 100 | > 100 | > 100 | – | – | – | –
